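Protocol summary: plate cells (96-well), add compound at 5 concentrations, incubate 48 h, interpolate endpoints linearly. GI50 is the concentration that inhibits growth by half.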 Activity calls are given as the source filed them. Cut-off read from the data, not from the text of the source: active = GI50 up to about 1.1 µM and inactive = higher.
How the values were obtained:
Assay in all cases: growth of human tumour cells (NCI), 48 h
HL-60 = tested on: HL-60
CAKI-1 = tested on: CAKI-1
NCI-H23 = tested on: NCI-H23
HOP-92 = tested on: HOP-92
SK-MEL-5 = tested on: SK-MEL-5
CCRF-CEM = tested on: CCRF-CEM
A498 = tested on: A498
RPMI-8226 = tested on: RPMI-8226
NCI-H460 = tested on: NCI-H460
MOLT-4 = tested on: MOLT-4
SNB-75 = tested on: SNB-75
UACC-62 = tested on: UACC-62
SW-620 = tested on: SW-620
A549 = tested on: A549
Malme-3M = tested on: Malme-3M
SF-295 = tested on: SF-295
SF-539 = tested on: SF-539
MDA-MB-435 = tested on: MDA-MB-435
PC-3 = tested on: PC-3

Compound	GI50 (HL-60)	GI50 (CAKI-1)	GI50 (NCI-H23)	GI50 (HOP-92)	GI50 (SK-MEL-5)	GI50 (CCRF-CEM)	GI50 (A498)	GI50 (RPMI-8226)	GI50 (NCI-H460)	GI50 (MOLT-4)	GI50 (SNB-75)	GI50 (UACC-62)	GI50 (SW-620)	GI50 (A549)	GI50 (Malme-3M)	GI50 (SF-295)	GI50 (SF-539)	GI50 (MDA-MB-435)	GI50 (PC-3)
C=C1C(=O)OCC2C(C(=O)O)=CC3C(C)C(C)=CC123 (stereo not drawn)	9.33 µM (inactive)	19.6 µM (inactive)	8.36 µM (inactive)	10.6 µM (inactive)	9.31 µM (inactive)	7.74 µM (inactive)	7.8 µM (inactive)	7.23 µM (inactive)	9.14 µM (inactive)	7.82 µM (inactive)	13.9 µM (inactive)	5.41 µM (inactive)	9.31 µM (inactive)	20.7 µM (inactive)	7.33 µM (inactive)	15 µM (inactive)	8.51 µM (inactive)		
COc1ccc(C2=CC3CCC2C3)cc1 (stereo not drawn)	50 µM (inactive)	> 100 µM (inactive)	> 100 µM (inactive)	59.8 µM (inactive)	> 100 µM (inactive)	> 100 µM (inactive)	77.3 µM (inactive)	> 100 µM (inactive)	> 100 µM (inactive)	> 100 µM (inactive)	> 100 µM (inactive)	> 100 µM (inactive)	> 100 µM (inactive)	> 100 µM (inactive)	> 100 µM (inactive)	> 100 µM (inactive)	> 100 µM (inactive)		
Cc1nc(-c2nc([N+](=O)[O-])c([N+](=O)[O-])[nH]2)cs1	> 100 µM (inactive)	> 100 µM (inactive)	> 100 µM (inactive)	> 100 µM (inactive)	> 100 µM (inactive)	> 100 µM (inactive)	> 100 µM (inactive)	> 100 µM (inactive)	> 100 µM (inactive)	> 100 µM (inactive)	> 100 µM (inactive)	> 100 µM (inactive)	> 100 µM (inactive)	> 100 µM (inactive)	> 100 µM (inactive)	> 100 µM (inactive)	> 100 µM (inactive)		
CN(C)CC(CC1=C(CC(CN(C)C)N(C)C)CCC1)N(C)C (stereo not drawn)	> 100 µM (inactive)	> 100 µM (inactive)	> 100 µM (inactive)	> 100 µM (inactive)	> 100 µM (inactive)	> 100 µM (inactive)	> 100 µM (inactive)	> 100 µM (inactive)	> 100 µM (inactive)	> 100 µM (inactive)	> 100 µM (inactive)	> 100 µM (inactive)	> 100 µM (inactive)	> 100 µM (inactive)	> 100 µM (inactive)	> 100 µM (inactive)	> 100 µM (inactive)		
O=C1NN=C(c2ccc([N+](=O)[O-])cc2)C1n1nc(-c2ccccc2)c2ccccc2c1=O (stereo not drawn)	> 45.6 µM (inactive)	> 100 µM (inactive)	> 100 µM (inactive)	> 100 µM (inactive)	> 100 µM (inactive)	> 65.5 µM (inactive)	> 100 µM (inactive)	> 48.6 µM (inactive)	> 92.5 µM (inactive)	> 94.2 µM (inactive)	> 95.5 µM (inactive)	> 100 µM (inactive)	> 34.2 µM (inactive)	> 80 µM (inactive)	> 100 µM (inactive)	> 100 µM (inactive)	> 100 µM (inactive)		
CN1N=C(c2ccncc2)OC1c1cccc(F)c1 (stereo not drawn)	> 100 µM (inactive)		> 100 µM (inactive)		> 100 µM (inactive)	> 100 µM (inactive)	> 100 µM (inactive)	> 100 µM (inactive)	> 100 µM (inactive)	> 100 µM (inactive)	> 100 µM (inactive)	> 100 µM (inactive)	> 100 µM (inactive)	> 100 µM (inactive)		> 100 µM (inactive)	> 100 µM (inactive)	> 100 µM (inactive)	> 100 µM (inactive)
C=C1C(=O)O[C@H]2C(=O)[C@H](C)CCC[C@@](C)(O)/C=C\C[C@@]3(C)O[C@@H]3C[C@@H]12		12.9 µM (inactive)	24.5 µM (inactive)	10.3 µM (inactive)	15.2 µM (inactive)	2.67 µM (inactive)	16.1 µM (inactive)	17 µM (inactive)	26.5 µM (inactive)	< 0.01 µM (active)		18.4 µM (inactive)	8 µM (inactive)	19 µM (inactive)		5.28 µM (inactive)	19.3 µM (inactive)	18.5 µM (inactive)	17 µM (inactive)
COc1ccc(C2=N/C(=C\c3ccccc3)C(=O)O2)cc1	12.2 µM (inactive)			> 100 µM (inactive)		31 µM (inactive)		36.6 µM (inactive)	> 100 µM (inactive)	13.3 µM (inactive)	45.2 µM (inactive)		> 100 µM (inactive)	> 100 µM (inactive)		> 100 µM (inactive)	44.3 µM (inactive)	> 100 µM (inactive)	> 100 µM (inactive)
NC(=O)c1csc(CCCCCCc2nc(C(N)=O)cs2)n1	> 100 µM (inactive)	> 100 µM (inactive)	> 100 µM (inactive)	> 100 µM (inactive)	> 100 µM (inactive)	> 43.5 µM (inactive)	> 100 µM (inactive)	> 50.9 µM (inactive)	> 100 µM (inactive)	> 100 µM (inactive)	> 100 µM (inactive)	> 100 µM (inactive)	> 40.3 µM (inactive)	> 100 µM (inactive)	> 100 µM (inactive)	> 100 µM (inactive)	> 100 µM (inactive)		
COc1cccc2c1C(=O)c1c(O)c3c(c(O)c1C2=O)CC(O)(C(C)=O)CC3O (stereo not drawn)	3.6 µM (inactive)	4.61 µM (inactive)	4.88 µM (inactive)	7.11 µM (inactive)	2.16 µM (inactive)	1.88 µM (inactive)	1 µM (active)	2.18 µM (inactive)	1.56 µM (inactive)	1.98 µM (inactive)	9.68 µM (inactive)	5.58 µM (inactive)	2.33 µM (inactive)	6.55 µM (inactive)	4.56 µM (inactive)	5.73 µM (inactive)	4.74 µM (inactive)		
CN(C)C(=O)/C=C/c1c[nH]c(=O)[nH]c1=O	296 µM (inactive)	> 500 µM (inactive)	> 500 µM (inactive)	> 500 µM (inactive)	> 500 µM (inactive)	> 500 µM (inactive)	> 500 µM (inactive)	> 316 µM (inactive)	> 500 µM (inactive)	> 500 µM (inactive)	> 500 µM (inactive)	> 500 µM (inactive)	> 500 µM (inactive)	> 500 µM (inactive)	> 500 µM (inactive)	> 500 µM (inactive)	> 500 µM (inactive)		
CCCCCCCC/C=C\CCCCCCCC(=O)O [OLEIC ACID]	126 µM (inactive)	118 µM (inactive)	87.7 µM (inactive)	> 5 µM (inactive)	> 212 µM (inactive)	99.8 µM (inactive)	> 431 µM (inactive)	91.6 µM (inactive)	101 µM (inactive)	148 µM (inactive)	24.5 µM (inactive)	180 µM (inactive)	140 µM (inactive)	109 µM (inactive)	> 500 µM (inactive)	99.1 µM (inactive)	103 µM (inactive)		
